{"source": "patent US12285464B2", "about": "“Therapeutic targets involved in the progression of nonalcoholic steatohepatitis (NASH)” (The Trustees of Columbia University in the City of New York, priority 2016, dated 2025)", "key": {"[1]": {"test_system": "PCSK9", "conditions": "modified stable siRNA, clinical trials; cited from earlier work"}, "[2]": {"test_system": "primary murine hepatic stellate cells (HSCs)", "assay": "Conditioned medium transfer from silenced AML12 hepatocytes to primary hepatic stellate cells", "type": "cell-based, mouse", "conditions": "CM from TAZ-silenced vs control hepatocytes, 72 h", "source_text": "To explore the possibility that TAZ-induced Ihh is secreted by hepatocytes and activates HSCs, an in vitro model using AML12 cells, a non-cancerous mouse hepatocyte cell line was utilized (Dumenco et al., 1995), along with primary murine HSCs. Consistent with the in vivo data, siTaz treatment of AML12 hepatocytes lowered cellular Ihh mRNA in the cells and Ihh protein in both the cells and media (FIGS. 8A-C). In the next experiments, conditioned medium (CM) from control or Taz-silenced AML12 cells was utilized, as well as medium not exposed to cells (non-CM), to primary murine hepatic stellate cells (HSCs). […] Finally, to make a more direct link between TAZ-induced Ihh in hepatocytes and activation of HSCs, Ihh was restored in siTaz-treated hepatocytes by Ihh transfection and then analyzed to determine whether this lessened the suppressive effect of CM from these cells on the expression of the fibrosis-related genes in HSCs. […]\nAML12 mouse hepatocytes were purchased from ATCC (CRL-2254) and cultured in DMEM/F12 medium (Lifetechnologies, #11320) with 10% FBS (Gibco, #16140-071). […] For quantification of Ihh, hepatocyte conditioned medium was concentrated 10-fold by centrifugal filters (Millipore, Ultracel) and analyzed by an ELISA kit (LifeSpan Biosciences, F7953)."}, "[3]": {"test_system": "Taz", "assay": "siTaz treatment of AML12 hepatocytes (Ihh mRNA, immunoblot, ELISA)", "type": "cell-based, mouse", "source_text": "To explore the possibility that TAZ-induced Ihh is secreted by hepatocytes and activates HSCs, an in vitro model using AML12 cells, a non-cancerous mouse hepatocyte cell line was utilized (Dumenco et al., 1995), along with primary murine HSCs. Consistent with the in vivo data, siTaz treatment of AML12 hepatocytes lowered cellular Ihh mRNA in the cells and Ihh protein in both the cells and media (FIGS. 8A-C). In the next experiments, conditioned medium (CM) from control or Taz-silenced AML12 cells was utilized, as well as medium not exposed to cells (non-CM), to primary murine hepatic stellate cells (HSCs). […] Most importantly, CM from TAZ-silenced hepatocytes lowered the levels these mRNAs and protein compared to CM from shCon-treated hepatocytes (FIG. 8D). […] Finally, to make a more direct link between TAZ-induced Ihh in hepatocytes and activation of HSCs, Ihh was restored in siTaz-treated hepatocytes by Ihh transfection and then analyzed to determine whether this lessened the suppressive effect of CM from these cells on the expression of the fibrosis-related genes in HSCs. Transfection of TAZ-silenced hepatocytes with Ihh led to a level of Ihh in the CM that was similar to that in the CM of control hepatocytes (FIG. 8F—compare 1st and 4th bars). As before, the CM of TAZ-silenced hepatocytes suppressed Opn, Timp1 and Col1a1 mRNA in HSCs (FIG. 8G—compare 2nd and 4th bars), and the present results illustrate that restoration of Ihh in these TAZ-silenced cells rescued CM-induced HSC gene expression (FIG. 8G—compare 4th and 5th bars).\nAML12 mouse hepatocytes were purchased from ATCC (CRL-2254) and cultured in DMEM/F12 medium (Lifetechnologies, #11320) with 10% FBS (Gibco, #16140-071). Hepatic stellate cells (HSCs) were isolated from 5-6 mo/o BALB/C mice as described previously (Mederacke et al., 2015). […] For quantification of Ihh, hepatocyte conditioned medium was concentrated 10-fold by centrifugal filters (Millipore, Ultracel) and analyzed by an ELISA kit (LifeSpan Biosciences, F7953). […]"}}}
{"substance": "Inclisiran", "values": [{"measurement": "toxicity profile", "setting": "[1]", "result": "very low toxicity profiles"}]}
{"substance": "siTaz: siRNA against mouse Taz purchased from IDT; target sequence ACAUGGACGAGAUGGAUACAGGUGA (sense ACAUGGACGAGAUGGAUACAGGUGA; purchased from IDT, chemistry not given here; the letters are possibly those of the target site)", "values": [{"measurement": "Opn, Timp1 and Col1a1 mRNAs and protein in HSCs", "setting": "[2]", "result": "lowered"}, {"measurement": "cellular Ihh mRNA", "setting": "[3]", "result": "lowered"}, {"measurement": "Ihh protein in the media", "setting": "[3]; ELISA", "result": "lowered"}, {"measurement": "Ihh protein in the cells", "setting": "[3]; immunoblot", "result": "lowered"}]}
